Results on two molecules are retold here after patent publication US20110257245A1, “METHODS OF IDENTIFYING REGULATORS OF CELLULAR PROTEOSTASIS” (The Board of Trustees of the Leland Stanford Junior …, priority 2010, published 2011).

Where a SMILES comes first, the peptide text is derived from it. The star is where a group is joined. Cbz = O=C(OCc1ccccc1)*

For one data set, the system named is 26S proteasomes. The data set is described as follows: In vitro Sic1 degradation assay. It counts as biochemical, rat. As for the experimental part: The substrate degradation reaction was carried out at room temperature in 50-100 μL total volume containing 10 nM 26S, 1×ATP buffer, and 100 nM [35S]Sic1-Ubn. 5 μL reaction aliquots were removed at various time points and separated on a 4-20% gradient gel followed by autoradiography. Alternately, aliquots were added to 10% trichloroacetic acid (TCA) or ddH20 on ice for 30 min and 2 mg/mL bovine serum albumin as a carrier. Samples were centrifuged at 12,000×g for 30 min, and the supernatant removed for analysis by scintillation spectrometry. The percent of degradation was determined by dividing the measured counts after TCA precipitation by the total counts measured in ddH20. To assess the ubiquitin-dependence of degradation, [35S]Sic1-Ubn was pretreated with 10 nM Usp2 cc (Baker et al., 2005) for 30 min at 37° C. prior to the addition of proteasomes. To inhibit substrate degradation, 26S proteasomes were pretreated with 10 μM MG132 (Biomol) prior to the addition of substrate. The initial rate of degradation was determined by least-squares linear regression analyses of 5, 10, and 20 min time points using Sigmaplot. The dependence of the initial rate of degradation on substrate concentration was plotted, and the data fit to the Michaelis-Menten equation using Sigmaplot.

Data set [1] has as its system HEK293 cells stably expressing GFP-CL1, UbG76V-GFP, Ub-R-GFP or cODC-GFP. The data set is described as follows: Fluorescent proteasome reporters challenged with proteasome inhibitor. It counts as cell-based. The conditions noted are these: 10 μM MG-132, all four reporters. The protocol:
FIG. 6 depicts features of fluorescent proteasome reporters, used in embodiments of the present invention. Untransfected HEK293 cells, and cells stably expressing GFP-CL1, UbG76V-GFP, Ub-R-GFP or cODC-GFP were treated with 10 μM MG-132 and at the times indicated, mean GFP fluorescence was analyzed by flow cytometry (Panel A) or by fluorescence microscopy of living cells (Panel B). […] Cells were incubated overnight at the permissive temperature 32° C. (black bars), at 32° C. in the presence of 10 μM MG-132 (white bars) or at the non-permissive temperature 40° C. (grey bars). Mean GFP fluorescence was analyzed by flow cytometry, and plotted as relative fluorescence change. […] HEK293 cells stably expressing UbG76V-GFP or GFP were transiently transfected with httchFP, and analyzed as described in FIG. 1B. […] Htt(Q91)-chFP-specific GFP fluorescence is plotted for GFP (♦) and UbG76V-GFP expressing cells (▪).
Unless indicated, cells were harvested 72 hrs after transfection and analyzed with a Becton-Dickinson LSRII flow cytometer with a 488 nm and a 535 nm Laser (BD, Franklin Lakes, N.J.). To ensure a sufficient number of cells with elevated levels of the transfected protein, over 200,000 cells were analyzed per condition in a typical experiment. […] Raw flow cytometry data were analyzed using FlowJo (version 8.8.6, Tree Star) software. […]

In the case of `CC(C)C[C@@H](C=O)NC(=O)[C@H](CC(C)C)NC(=O)[C@H](CC(C)C)NC(=O)OCc1ccccc1` [MG132] (Cbz-Leu-Leu-Leu-aldehyde), in the data set with 26S proteasomes (10 μM MG132, 10 nM 26S, 100 nM substrate), the “effect on degradation of PY-Sic1(Ubn) by purified proteasomes” value is “inhibited”. Besides, the “fluorescence of GFP-degron proteasome reporters” value in data set [1] is “diffuse time-dependent increases in cytoplasmic fluorescence”.

B1: [35S]PY-Sic1(Ubn): [35S]-labeled polyubiquitinated PY-Sic1 model substrate of the 26S proteasome (protein, UniProt P38634 1-284, looked up)
Protein SIC1: MTPSTPPRSRGTRYLAQPSGNTSSSALMQGQKTPQKPSQNLVPVTPSTTKSFKNAPLLAPPNSNMGMTSPFNGLTSPQRSPFPKSSVKRTLFQFESHDNGTVREEQEPLGRVNRILFPTQQNVDIDAAEEEEEGEVLLPPSRPTSARQLHLSLERDEFDQTHRKKIIKDVPGTPSDKVITFELAKNWNNNSPKNDARSQESEDEEDIIINPVRVGKNPFASDELVTQEIRNERKRAMLRENPDIEDVITYVNKKGEVVEKRRLTDEEKRRFKPKALFQSRDQEH
modifications: 35S label, PY motif, polyubiquitinated
notes: [35S]-labeled polyubiquitinated PY-Sic1 model substrate of the 26S proteasome
Regarding B1, the Michaelis constant (Km) (as a rule, the concentration of substrate that gives half-maximal velocity) in the data set on 26S proteasomes (10 nM 26S proteasomes, read-out: Km of [35S]PY-Sic1(Ubn) degradation (Michaelis-Menten analysis)) is 46.9 ± 3.5 nM.
